Literature values as cited in patent US5298246A, “Stable pharmaceutical composition and method for its production” (Kanegafuchi Kagaku Kogyo Kabushiki Kaisha, priority 1991, dated 1994).

SMILES: COC1=C(OC)C(=O)C(C/C=C(\C)CC/C=C(\C)CC/C=C(\C)CC/C=C(\C)CC/C=C(\C)CC/C=C(\C)CC/C=C(\C)CC/C=C(\C)CC/C=C(\C)CCC=C(C)C)=C(C)C1=O [ubidecarenone]
- absorbability upon oral administration: low
